Laboratory results reported in ChEMBL document CHEMBL5344474, “Molecular editing of NSC-666719 enabling discovery of benzodithiazinedioxide-guanidines as anticancer agents” (RSC Med Chem, 2024).

Tested on: MCF7
Assay: Antiproliferative activity against human MCF7 cells incubated for 72 hrs by MTT assay
Conditions: MCF7, 72 h

SMILES	IC50 [µM]
Cc1cc2c(cc1Cl)SC(/N=C(/N)Nc1ccc3c(ccc(=O)n3C)c1)=NS2(=O)=O	4
Cc1cc(S(=O)(=O)Nc2nc(Nc3ccnc4cc(Cl)ccc34)n[nH]2)c(S)cc1Cl	4
Cc1cc(S(=O)(=O)Nc2nc(Nc3cccc4ncccc34)n[nH]2)c(S)cc1Cl	7.2
Cc1cc2c(cc1Cl)SC(/N=C(/N)Nc1ccc(Cl)cc1)=NS2(=O)=O	5.5
Cc1cc2c(cc1Cl)SC(/N=C(/N)Nc1ccc3cnccc3c1)=NS2(=O)=O	5.4
Cc1cc(S(=O)(=O)Nc2nc(Nc3cnc4ccccc4c3)n[nH]2)c(S)cc1Cl	7.8

Stronger by IC50, values ahead:

IC50 [µM]	SMILES
3.8	Cc1cc2c(cc1Cl)SC(/N=C(/N)Nc1ccc3ncccc3c1)=NS2(=O)=O
3	COc1ccc2ccccc2c1N/C(N)=N\C1=NS(=O)(=O)c2cc(C)c(Cl)cc2S1
2.4	COc1cc(N/C(N)=N\C2=NS(=O)(=O)c3cc(C)c(Cl)cc3S2)cc(OC)c1OC
2.4	Cc1cc2c(cc1Cl)SC(/N=C(/N)NC(=O)c1ccc3ccccc3c1)=NS2(=O)=O
1.8	Cc1cc(S(=O)(=O)Nc2nc(Nc3cncc4ccccc34)n[nH]2)c(S)cc1Cl

Tested on: MDA-MB-231
Assay: Antiproliferative activity against human MDA-MB-231 cells incubated for 72 hrs by MTT assay
Conditions: MDA-MB-231, 72 h

SMILES	IC50 [µM]
Cc1cc2c(cc1Cl)SC(/N=C(/N)Nc1ccc3c(ccc(=O)n3C)c1)=NS2(=O)=O	5.8
Cc1cc(S(=O)(=O)Nc2nc(Nc3ccnc4cc(Cl)ccc34)n[nH]2)c(S)cc1Cl	4.8
Cc1cc(S(=O)(=O)Nc2nc(Nc3cccc4ncccc34)n[nH]2)c(S)cc1Cl	8.6
Cc1cc2c(cc1Cl)SC(/N=C(/N)Nc1ccc(Cl)cc1)=NS2(=O)=O	6.6
Cc1cc2c(cc1Cl)SC(/N=C(/N)Nc1ccc3cnccc3c1)=NS2(=O)=O	7.2
Cc1cc(S(=O)(=O)Nc2nc(Nc3cnc4ccccc4c3)n[nH]2)c(S)cc1Cl	8.6

Now from value to compound:

IC50 [µM]	SMILES
5.8	Cc1cc2c(cc1Cl)SC(/N=C(/N)Nc1ccc3ncccc3c1)=NS2(=O)=O
4.3	COc1ccc2ccccc2c1N/C(N)=N\C1=NS(=O)(=O)c2cc(C)c(Cl)cc2S1
4.1	COc1cc(N/C(N)=N\C2=NS(=O)(=O)c3cc(C)c(Cl)cc3S2)cc(OC)c1OC
4	Cc1cc2c(cc1Cl)SC(/N=C(/N)NC(=O)c1ccc3ccccc3c1)=NS2(=O)=O
2.6	Cc1cc(S(=O)(=O)Nc2nc(Nc3cncc4ccccc34)n[nH]2)c(S)cc1Cl

Tested on: HCT-116
Assay: Antiproliferative activity against human HCT-116 cells incubated for 72 hrs by MTT assay
Conditions: HCT-116, 72 h

IC50 [µM]	SMILES
3.8	Cc1cc(S(=O)(=O)Nc2nc(Nc3cncc4ccccc34)n[nH]2)c(S)cc1Cl

Tested on: SCC-9
Assay: Antiproliferative activity against human SCC-9 cells incubated for 72 hrs by MTT assay
Conditions: SCC-9, 72 h

SMILES	IC50 [µM]
Cc1cc(S(=O)(=O)Nc2nc(Nc3cncc4ccccc34)n[nH]2)c(S)cc1Cl	2.1

Tested on: not listed separately
Assay: Selectivity index, ratio of IC50 for HEK293 cells to IC50 for human MCF7 cells
Conditions: HEK293 cells versus MCF7 cells

SMILES	selectivity ratio
Cc1cc2c(cc1Cl)SC(/N=C(/N)Nc1ccc3c(ccc(=O)n3C)c1)=NS2(=O)=O	> 65
Cc1cc(S(=O)(=O)Nc2nc(Nc3ccnc4cc(Cl)ccc34)n[nH]2)c(S)cc1Cl	> 65
COc1ccc2ccccc2c1N/C(N)=N\C1=NS(=O)(=O)c2cc(C)c(Cl)cc2S1	> 65
Cc1cc(S(=O)(=O)Nc2nc(Nc3cccc4ncccc34)n[nH]2)c(S)cc1Cl	> 65
Cc1cc(S(=O)(=O)Nc2nc(Nc3cncc4ccccc34)n[nH]2)c(S)cc1Cl	> 65
Cc1cc2c(cc1Cl)SC(/N=C(/N)Nc1ccc(Cl)cc1)=NS2(=O)=O	> 65
Cc1cc2c(cc1Cl)SC(/N=C(/N)Nc1ccc3ncccc3c1)=NS2(=O)=O	> 65
Cc1cc2c(cc1Cl)SC(/N=C(/N)Nc1ccc3cnccc3c1)=NS2(=O)=O	> 65
COc1cc(N/C(N)=N\C2=NS(=O)(=O)c3cc(C)c(Cl)cc3S2)cc(OC)c1OC	> 65
Cc1cc2c(cc1Cl)SC(/N=C(/N)NC(=O)c1ccc3ccccc3c1)=NS2(=O)=O	> 65
Cc1cc(S(=O)(=O)Nc2nc(Nc3cnc4ccccc4c3)n[nH]2)c(S)cc1Cl	> 65

Tested on: not listed separately
Assay: Selectivity index, ratio of IC50 for HEK293 cells to IC50 for human MDA-MB-231 cells
Conditions: HEK293 cells versus MDA-MB-231 cells

SMILES	selectivity ratio
Cc1cc2c(cc1Cl)SC(/N=C(/N)Nc1ccc3c(ccc(=O)n3C)c1)=NS2(=O)=O	> 65
Cc1cc(S(=O)(=O)Nc2nc(Nc3ccnc4cc(Cl)ccc34)n[nH]2)c(S)cc1Cl	> 65
COc1ccc2ccccc2c1N/C(N)=N\C1=NS(=O)(=O)c2cc(C)c(Cl)cc2S1	> 65
Cc1cc(S(=O)(=O)Nc2nc(Nc3cccc4ncccc34)n[nH]2)c(S)cc1Cl	> 65
Cc1cc(S(=O)(=O)Nc2nc(Nc3cncc4ccccc34)n[nH]2)c(S)cc1Cl	> 65
Cc1cc2c(cc1Cl)SC(/N=C(/N)Nc1ccc(Cl)cc1)=NS2(=O)=O	> 65
Cc1cc2c(cc1Cl)SC(/N=C(/N)Nc1ccc3ncccc3c1)=NS2(=O)=O	> 65
Cc1cc2c(cc1Cl)SC(/N=C(/N)Nc1ccc3cnccc3c1)=NS2(=O)=O	> 65
COc1cc(N/C(N)=N\C2=NS(=O)(=O)c3cc(C)c(Cl)cc3S2)cc(OC)c1OC	> 65
Cc1cc2c(cc1Cl)SC(/N=C(/N)NC(=O)c1ccc3ccccc3c1)=NS2(=O)=O	> 65
Cc1cc(S(=O)(=O)Nc2nc(Nc3cnc4ccccc4c3)n[nH]2)c(S)cc1Cl	> 65

Tested on: not listed separately
Assay: Selectivity index, ratio of IC50 for HEK293 cells to IC50 for human HCT-116 cells
Conditions: HEK293 cells versus HCT-116 cells

SMILES	selectivity ratio
Cc1cc2c(cc1Cl)SC(/N=C(/N)Nc1ccc3c(ccc(=O)n3C)c1)=NS2(=O)=O	> 65
Cc1cc(S(=O)(=O)Nc2nc(Nc3ccnc4cc(Cl)ccc34)n[nH]2)c(S)cc1Cl	> 65
COc1ccc2ccccc2c1N/C(N)=N\C1=NS(=O)(=O)c2cc(C)c(Cl)cc2S1	> 65
Cc1cc(S(=O)(=O)Nc2nc(Nc3cccc4ncccc34)n[nH]2)c(S)cc1Cl	> 65
Cc1cc(S(=O)(=O)Nc2nc(Nc3cncc4ccccc34)n[nH]2)c(S)cc1Cl	> 65
Cc1cc2c(cc1Cl)SC(/N=C(/N)Nc1ccc(Cl)cc1)=NS2(=O)=O	> 65
Cc1cc2c(cc1Cl)SC(/N=C(/N)Nc1ccc3ncccc3c1)=NS2(=O)=O	> 65
Cc1cc2c(cc1Cl)SC(/N=C(/N)Nc1ccc3cnccc3c1)=NS2(=O)=O	> 65
COc1cc(N/C(N)=N\C2=NS(=O)(=O)c3cc(C)c(Cl)cc3S2)cc(OC)c1OC	> 65
Cc1cc2c(cc1Cl)SC(/N=C(/N)NC(=O)c1ccc3ccccc3c1)=NS2(=O)=O	> 65
Cc1cc(S(=O)(=O)Nc2nc(Nc3cnc4ccccc4c3)n[nH]2)c(S)cc1Cl	> 65
